# Results taken from article PMC8413904 (Pharmacology Research & Perspectives, 2021).
# Where two headings read alike, the source gives them in different places.
# Legend:
# [1] = tested on: cultured rat brain cortical neurons; assay: Dynamic calcium assay (Fluo‐8); type: cell-based
# Method: (§1) All animal experimental procedures and housing have been approved by the Institutional Animal Care and Use Committee (IACUC) protocol #18‐015 of Virginia Tech. Embryonic day 18 (E18) rat brain tissue samples were obtained from adult pregnant SD rats. Rat brain primary cortical, striatal, and cerebellar neurons were cultured on poly‐d‐lysine coated 96‐well plates for 14 days in vitro (DIV14) before using for the experiments. Primary rat neuron culture was performed as previously published.[44] Briefly, each well of a 96 well plate was loaded with 50 000 cells and grown in 200 µl neurobasal media supplemented with B27, glutamax, penicillin, streptomycin. One hundred microliters of media was replaced with fresh media once in 4 days. Eight to thirteen fetus were obtained from each pregnant rat. Brain tissue from these fetus were pooled to obtain the neurons. Cortical, striatal, and cerebellar neuron assays were carried out at different time points.
# Dynamic calcium assay was carried out, using Fluo‐8 no‐wash kit (abcam, ab112129), as per the manufacturer's instructions with minor modifications to fit with experimental necessities. On DIV14, all 200 μl of media was removed and replaced it with 100 μl of HBSS and 100 μl of Fluo‐8 dye loading solution. The plates were incubated at 37°C for 30 min and at room temperature for 30 min. […] Costar 96‐well clear bottom black side plates were read from the bottom, nine times, with 60 s intervals between each read. Temperature was set at 37°C and reading speed was 100 ms.
# GluN1/2A [2] = molecular target: T1, GluN1/2A (UniProt P35439+Q12879); set-up: method as in PMID 30553788; details: at −60 mV; read-out: Mg^2+ IC50; cited from earlier work
# T1 sequence (Q12879 23-1464, other chains not shown): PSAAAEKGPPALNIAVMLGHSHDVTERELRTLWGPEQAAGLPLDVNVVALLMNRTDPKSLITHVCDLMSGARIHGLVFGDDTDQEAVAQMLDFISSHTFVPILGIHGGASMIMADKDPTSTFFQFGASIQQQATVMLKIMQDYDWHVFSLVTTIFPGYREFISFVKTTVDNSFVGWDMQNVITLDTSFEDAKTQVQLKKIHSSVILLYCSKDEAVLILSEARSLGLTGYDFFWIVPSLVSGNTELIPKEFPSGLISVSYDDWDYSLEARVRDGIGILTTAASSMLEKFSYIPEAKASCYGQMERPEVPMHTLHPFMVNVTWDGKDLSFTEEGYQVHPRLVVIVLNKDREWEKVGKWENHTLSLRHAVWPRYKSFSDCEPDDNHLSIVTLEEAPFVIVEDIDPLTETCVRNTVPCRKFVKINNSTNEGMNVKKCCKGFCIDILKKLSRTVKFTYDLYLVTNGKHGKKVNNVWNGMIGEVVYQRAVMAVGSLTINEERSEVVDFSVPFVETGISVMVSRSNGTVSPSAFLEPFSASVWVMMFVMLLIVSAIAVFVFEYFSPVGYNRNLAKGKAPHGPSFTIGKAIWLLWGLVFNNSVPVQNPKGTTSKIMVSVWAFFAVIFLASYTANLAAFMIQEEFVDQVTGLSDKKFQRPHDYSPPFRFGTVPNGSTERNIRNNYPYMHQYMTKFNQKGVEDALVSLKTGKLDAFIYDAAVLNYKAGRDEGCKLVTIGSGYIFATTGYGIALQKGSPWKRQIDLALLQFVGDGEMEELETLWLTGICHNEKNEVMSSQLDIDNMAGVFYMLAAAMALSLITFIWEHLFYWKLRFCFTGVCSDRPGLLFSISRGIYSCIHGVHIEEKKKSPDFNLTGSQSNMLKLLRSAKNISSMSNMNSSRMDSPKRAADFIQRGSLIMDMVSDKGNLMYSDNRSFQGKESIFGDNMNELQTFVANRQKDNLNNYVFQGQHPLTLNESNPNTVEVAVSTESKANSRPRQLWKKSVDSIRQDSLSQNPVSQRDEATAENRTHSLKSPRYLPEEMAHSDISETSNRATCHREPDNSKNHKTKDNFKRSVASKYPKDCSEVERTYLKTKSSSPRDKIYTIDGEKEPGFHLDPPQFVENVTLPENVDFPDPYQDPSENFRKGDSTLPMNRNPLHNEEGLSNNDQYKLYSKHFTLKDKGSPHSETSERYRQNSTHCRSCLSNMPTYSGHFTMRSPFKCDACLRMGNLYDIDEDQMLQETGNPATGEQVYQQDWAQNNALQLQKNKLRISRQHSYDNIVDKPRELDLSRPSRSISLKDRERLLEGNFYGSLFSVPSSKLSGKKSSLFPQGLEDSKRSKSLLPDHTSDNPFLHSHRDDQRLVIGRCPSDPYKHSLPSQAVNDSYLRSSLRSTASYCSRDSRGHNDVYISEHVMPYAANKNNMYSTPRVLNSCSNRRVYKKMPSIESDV
# [3] = tested on: cultured rat brain striatal neurons; assay: Dynamic calcium assay (Fluo‐8); type: cell-based; details: 300 µM NMDA alone
# Method: as §1
# (§2) Dynamic calcium assay was carried out, using Fluo‐8 no‐wash kit (abcam, ab112129), as per the manufacturer's instructions with minor modifications to fit with experimental necessities. On DIV14, all 200 μl of media was removed and replaced it with 100 μl of HBSS and 100 μl of Fluo‐8 dye loading solution. The plates were incubated at 37°C for 30 min and at room temperature for 30 min. A volume of 100 µL of test chemicals (3× of desired final concentration) was added to the plates immediately before running the calcium flux assay and read the fluorescence intensity at 490/525 nm (ex/em) using Synergy microplate reader, BioTek, VT. Costar 96‐well clear bottom black side plates were read from the bottom, nine times, with 60 s intervals between each read. Temperature was set at 37°C and reading speed was 100 ms.
# [4] = tested on: cultured rat brain cerebellar neurons; assay: Dynamic calcium assay (Fluo‐8); type: cell-based; details: 300 µM NMDA alone
# Method: as §1, §2
# [5] = tested on: cultured rat brain striatal neurons; assay: Na^+ assay (CoroNa green‐AM); type: cell-based; details: 300 µM NMDA alone
# Method: as §1
# (§3) For Na^+ assay, DIV14 neurons were washed with HBSS and treated with freshly prepared CoroNa green‐AM dye (ThermoFisher, cat # C36676) and incubated for 45 min in 37°C. Plates were washed twice with HBSS before adding drug solutions dissolved in HBSS, and read at 492/516 nm (ex/em) using a plate reader. RFU values of background control and treatments were plotted to identify the effect of CNS4 on NMDA‐induced Na^+ flux in the neurons.
# [6] = tested on: cultured rat brain cerebellar neurons; assay: Na^+ assay (CoroNa green‐AM); type: cell-based; details: 300 µM NMDA alone
# Method: as §1, §3
# [7] = tested on: cultured rat brain cortical neurons; assay: Na^+ assay (CoroNa green‐AM); type: cell-based
# Method: as §1
# as §3, with “Plates were washed twice with HBSS before adding drug solutions dissolved in HBSS, and read at 492/516 nm (ex/em) using a plate reader.” left out
# GluN1/2D = GluN1/2D (UniProt O15399+P35439); assay: TEVC electrophysiology dose–response in xenopus oocytes; type: cell-based; set-up: host or cells: Xenopus oocytes (cRNA injection)
# Chain of GluN1/2D (O15399 28-1336, other chains not shown): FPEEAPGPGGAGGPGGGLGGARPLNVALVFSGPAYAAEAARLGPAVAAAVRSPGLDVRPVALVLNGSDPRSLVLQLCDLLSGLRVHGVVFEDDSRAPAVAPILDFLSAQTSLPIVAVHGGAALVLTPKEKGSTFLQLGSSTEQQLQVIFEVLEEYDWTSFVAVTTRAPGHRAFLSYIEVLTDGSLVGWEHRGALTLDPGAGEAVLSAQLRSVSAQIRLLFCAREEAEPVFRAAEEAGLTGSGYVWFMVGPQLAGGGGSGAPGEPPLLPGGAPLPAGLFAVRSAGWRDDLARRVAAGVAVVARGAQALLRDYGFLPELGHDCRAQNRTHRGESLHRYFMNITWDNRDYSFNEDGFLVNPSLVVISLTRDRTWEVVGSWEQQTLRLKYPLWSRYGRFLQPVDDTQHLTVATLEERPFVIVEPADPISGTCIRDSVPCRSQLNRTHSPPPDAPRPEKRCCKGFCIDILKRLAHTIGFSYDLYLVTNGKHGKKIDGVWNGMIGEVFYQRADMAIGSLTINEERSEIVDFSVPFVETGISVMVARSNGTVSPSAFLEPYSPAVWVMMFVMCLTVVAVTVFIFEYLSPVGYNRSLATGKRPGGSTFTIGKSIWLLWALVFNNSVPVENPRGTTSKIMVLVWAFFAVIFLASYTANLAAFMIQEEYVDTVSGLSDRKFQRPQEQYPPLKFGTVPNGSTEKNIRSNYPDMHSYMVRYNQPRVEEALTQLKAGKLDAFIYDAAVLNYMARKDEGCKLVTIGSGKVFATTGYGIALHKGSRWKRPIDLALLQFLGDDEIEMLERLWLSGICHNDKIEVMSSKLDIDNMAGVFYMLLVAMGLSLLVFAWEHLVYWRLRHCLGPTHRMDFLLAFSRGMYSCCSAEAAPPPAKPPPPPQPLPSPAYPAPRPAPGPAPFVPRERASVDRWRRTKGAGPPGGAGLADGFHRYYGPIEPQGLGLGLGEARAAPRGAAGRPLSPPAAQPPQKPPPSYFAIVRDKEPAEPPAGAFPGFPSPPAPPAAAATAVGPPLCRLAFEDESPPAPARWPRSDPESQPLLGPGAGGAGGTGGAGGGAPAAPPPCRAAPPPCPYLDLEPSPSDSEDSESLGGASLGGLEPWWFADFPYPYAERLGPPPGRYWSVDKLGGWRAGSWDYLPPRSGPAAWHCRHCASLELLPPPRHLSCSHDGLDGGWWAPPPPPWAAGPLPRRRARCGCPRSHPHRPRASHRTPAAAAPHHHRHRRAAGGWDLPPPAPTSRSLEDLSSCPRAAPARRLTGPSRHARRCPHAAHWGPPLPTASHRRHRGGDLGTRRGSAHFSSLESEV
# Text: (§4) NMDAR constructs: cDNA encoding the NMDAR1a subunit (GluN1a) was obtained from Dr. Nakanishi. cDNA encoding the GluN2B (pci_sepGluN2B) was developed initially in the Malinow lab[36] and purchased from Addgene (cat# 23998). cDNA encoding the GluN2C and GluN2D were purchased from GenScript. Mutated GluN1, 2A and 2B cDNA constructs capable of assembling as GluN1/2A/2B triheteromeric (1/2AB) receptors[37] were obtained from Dr. Paoletti (Laboratoire de Neurobiologie, CNRS). […] Plasmids were linearized with NotI (GluN1a) or Avrll (GluN2B), or BstB1 (GluN2C and GluN2D) and transcribed in vitro with T7 (GluN1a, GluN1/2A, GluN2B, GluN2C, & GluN2D) RNA polymerase using the mMessage mMachine transcription kits (Invitrogen by Thermo Fisher Scientific).
# (§5) Stage IV frog oocytes were obtained from Xenopus‐I. NMDAR subunit cRNAs were suspended in nuclease‐free sterile water. GluN1A, GluN2B, GluN2C, GluN2D, and GluN1/2A/2B cRNAs were mixed in a ratio of 1:1–3. 50 nl of the final cRNA mixture was microinjected (40–70 ng total) into the oocyte cytoplasm. Oocytes were incubated in ND‐96 solution at 18^◦C prior to electrophysiological recordings (1–3 days).
# Electrophysiological responses were measured using a standard two‐microelectrode voltage‐clamp workstation [Warner Instruments (Hamden, Connecticut) model OC‐725C] designed to provide a fast clamp of large cells. The recording buffer contained 116 mM NaCl, 2 mM KCl, 0.3 mM BaCl2, and 5 mM HEPES, pH 7.4. Response magnitude was determined in xenopus oocytes expressing different NMDAR subunits (GluN1/2A, 1/2B, 1/2C, 1/2D, and 1/2A/2B) by the steady plateau response elicited by bath application of different agonist concentrations. […] Response amplitudes for functional NMDARs were generally between 0.1 and 2 μA. […] Dose–response relationships were fit to an appropriate curve‐fitting equation using GraphPad Prism‐7. Nonlinear regression was used to calculate EC50 and/or percentage maximal response. […] Statistical significance was determined at the overall alpha level .05, using appropriate statistical methods as described in each figure captions.
# GluN1/2A [8] = molecular target: T1, GluN1/2A; assay: as above; type: cell-based
# Text: as §4, §5
# Electrophysiological responses were measured using a standard two‐microelectrode voltage‐clamp workstation [Warner Instruments (Hamden, Connecticut) model OC‐725C] designed to provide a fast clamp of large cells. The recording buffer contained 116 mM NaCl, 2 mM KCl, 0.3 mM BaCl2, and 5 mM HEPES, pH 7.4. Response magnitude was determined in xenopus oocytes expressing different NMDAR subunits (GluN1/2A, 1/2B, 1/2C, 1/2D, and 1/2A/2B) by the steady plateau response elicited by bath application of different agonist concentrations. […] Response amplitudes for functional NMDARs were generally between 0.1 and 2 μA. […] Dose–response relationships were fit to an appropriate curve‐fitting equation using GraphPad Prism‐7. Nonlinear regression was used to calculate EC50 and/or percentage maximal response. Curve fittings were done using the following equations as performed in the previous studies[34], [39]: Y = 100/(1 + 10^(LogEC50‐X)) or Y = Bottom + (Top − Bottom)/(1+10^(LogEC50‐X)). Statistical significance was determined at the overall alpha level .05, using appropriate statistical methods as described in each figure captions.
molecule,measurement,setting,value
"NCCCC(=O)O [GABA, reference compound]","Ca^2+ signal, mean rfu","[1]; 100 µM GABA, baseline 7673, p < .0001",4196 rfu
"C[N+](C)(C)CCCCCC[N+](C)(C)C [Hexamethonium, reference compound]","Ca^2+ signal, mean rfu","[1]; 50 µM hexamethonium + 100 µM acetylcholine, p > .9999 vs acetylcholine (6222)",6228 rfu
[Cl-].[Cl-].[Mg+2] [MgCl2],IC50,GluN1/2A [2],40 µM
"CN[C@H](CC(=O)O)C(=O)O [NMDA, N‐methyl D‐aspartate, reference compound]","Ca^2+ signal, mean rfu",[3],20964 rfu
same,"Ca^2+ signal, rfu",[4],12810 rfu
same,"Ca^2+ signal, mean rfu",[1]; 300 µM NMDA alone,26711 rfu
same,Na^+ signal compared to the background control,[5],did not significantly increase
same,Na^+ signal compared to the background control,[6],did not significantly increase
"CC(=O)OCC[N+](C)(C)C [acetylcholine, reference compound]","Ca^2+ signal, mean rfu","[1]; 100 µM acetylcholine, baseline 7673, p < .0001",6222 rfu
"N[C@@H](CCC(=O)O)C(=O)O [glutamate, L‐glutamic acid, reference compound]","Na^+ signal, mean rfu","[7]; 100 µM glutamate, Figure 8B, baseline vs glutamate 514004 vs. 505677, p = .4055",505677 rfu
same,EC50,GluN1/2D,0.34 ± 0.01 µM
same,"Ca^2+ signal, mean rfu","[1]; 100 µM glutamate, Figure 8A, baseline 7673",21956 rfu
"CC(C(O)c1ccc(O)cc1)N1CCC(Cc2ccccc2)CC1 (stereo not shown) [ifenprodil, reference compound]",IC50,GluN1/2A [8],202 ± 25.1 µM
"CC12CC3CC(C)(C1)CC(N)(C3)C2 [memantine, reference compound]","Na^+ signal, mean rfu","[7]; NMDA plus 50 µM memantine, p < .01 vs NMDA alone (400251)",412868 rfu
same,effect on NMDA‐induced Ca^2+ signal,"[1]; 50 µM memantine added to NMDA, Figure 6",reversed the NMDA‐induced Ca^2+ signal back to the control level
picrotoxin [reference compound],effect on GABA mediated reduction of baseline Ca^2+ response,[1]; 50 µM picrotoxin + 100 µM GABA,unaltered
